From publication PMC4729137, “Functional analysis of androgen receptor mutations that confer anti-androgen resistance identified in circulating cell-free DNA from prostate cancer patients” (Genome Biology, 2016)
Changes are numbered by the printed parent chain. pEC50: −log10 of the molar value.

Experiments:
L882I-AR = molecular target: T1, L882I-AR (Homo sapiens, UniProt P10275, L882I); assay type: cell-based; conditions: AR mutant L882I; transfected PC3 cells; 0.1 nM R1881; drug 0 to 50 μM
T1 sequence (P10275 1-920 L882I): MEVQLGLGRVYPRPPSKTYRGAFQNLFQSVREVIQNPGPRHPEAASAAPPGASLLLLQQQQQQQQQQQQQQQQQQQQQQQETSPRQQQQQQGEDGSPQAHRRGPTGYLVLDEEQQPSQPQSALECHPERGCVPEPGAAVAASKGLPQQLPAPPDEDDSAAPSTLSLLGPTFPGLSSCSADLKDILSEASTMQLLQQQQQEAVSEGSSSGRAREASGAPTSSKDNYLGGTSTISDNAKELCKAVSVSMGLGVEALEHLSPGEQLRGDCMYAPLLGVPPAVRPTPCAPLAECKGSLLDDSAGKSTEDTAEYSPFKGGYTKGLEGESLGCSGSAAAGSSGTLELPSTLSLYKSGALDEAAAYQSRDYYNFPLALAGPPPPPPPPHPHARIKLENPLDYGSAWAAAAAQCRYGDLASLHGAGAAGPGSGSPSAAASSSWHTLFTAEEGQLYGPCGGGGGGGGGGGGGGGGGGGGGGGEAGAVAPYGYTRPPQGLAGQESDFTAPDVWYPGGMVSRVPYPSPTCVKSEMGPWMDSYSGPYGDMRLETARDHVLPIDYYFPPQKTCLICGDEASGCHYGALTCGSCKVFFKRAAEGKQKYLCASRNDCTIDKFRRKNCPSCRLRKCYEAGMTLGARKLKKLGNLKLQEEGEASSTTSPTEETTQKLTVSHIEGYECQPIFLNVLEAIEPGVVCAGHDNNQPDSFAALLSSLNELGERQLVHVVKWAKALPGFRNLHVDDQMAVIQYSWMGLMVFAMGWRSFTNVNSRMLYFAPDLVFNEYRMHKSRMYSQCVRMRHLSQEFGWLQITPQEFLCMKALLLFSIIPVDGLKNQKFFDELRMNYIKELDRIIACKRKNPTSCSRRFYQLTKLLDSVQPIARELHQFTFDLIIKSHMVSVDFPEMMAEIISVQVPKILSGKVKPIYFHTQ
Description: Full-length human AR (WT-AR) was encoded on a pcDNA3.1 expression plasmid (Life technologies). The LBD point mutations (single and multiple) were generated using the QuikChange II Site-Directed Mutagenesis Kit (Agilent Technologies) as per manufacturer’s instructions using WT-AR as the template. The mutagenic oligonucleotide primers were designed individually with the desired mutation in the middle of the primer with approximately 10 to 15 bases of correct sequence on both sides.
PC3 cells were seeded and transfected as described above. […] A non-stimulated/no R1881 control was used. After 24 h, cells were lysed and AR-dependent luciferase activity was quantified. Each concentration was assayed in quadruplicate n = 4, with a biological replicate of n = 3. Results were averaged and normalized by expressing them as a percentage of WT AR activity.

H875Y/T878A-AR = molecular target: T2, H875Y/T878A-AR (Homo sapiens, UniProt P10275, H875Y/T878A); assay: cell-based
T2 sequence (P10275 1-920 H875Y/T878A): T1 sequence (P10275 1-920 L882I) with H875Y, T878A, I882L

SMILES | Agonist response to treatment (L882I-AR) | pEC50 (H875Y/T878A-AR)
CC(C)(O)C(=O)Nc1ccc([N+](=O)[O-])c(C(F)(F)F)c1 [Hydroxyflutamide, hydroxyflutamide] | Partial | –
C[C@]12CCC(=O)C=C1CC[C@@H]1[C@@H]2[C@@H](O)C[C@@]2(C)[C@H]1CC[C@]2(O)C(=O)CO [hydrocortisone] | – | 6.98
